Data reported in patent publication US20040242870A1, “Antiviral methods and compounds” (priority 2000, published 2004).

Key:
Type in all cases: cell-based, Human
PBMCs [1] = test: PBMC cytotoxicity in time-of-addition assay
Source text: (§1) Human peripheral blood mononuclear cells from a minimum of 2 donors, that have been blasted with PHA and IL-2, were counted, viability determined by Trypan Blue dye exclusion and mixed in equal ratios. Pooled donors were used to minimize the variability observed between individual donors which results from quantitative and qualitative differences in HIV infection and overall response to the PHA and IL-2 of primary lymphocyte populations. The cells were resuspended at 1×10^6 cells/mL in RPMI 1640 without phenol red supplemented with 15% Fetal Bovine Serum (heat inactivated), 2 mM L-glutamine, 100 U/mL penicillin, 100 μg/mL streptomycin, 10 μg/Ln gentamycin and IL-2 (20 U/mL, R&D Systems, Minneapolis, Minn.). Fifty microliters of cells were then distributed to the inner 60 wells of a 96 well round bottom microtiter culture plate in a standard format developed by the Infectious Disease Research department of Southern Research Institute. Each plate contains cell control wells (cells only), virus control wells (cells plus virus), and experimental wells (drug plus cells plus virus). Alternatively, cells were cultured in T25 cm^2 or T75 cm^2 tissue culture flasks at a starting density of 1×10^6 cells per ml. Serially diluted compounds were added to the microtiter plate or tissue culture flask followed by the appropriate pre-titered strain of HIV-1. For virus replication inhibition experiments the HIV-1 strain RoJo was used. This is a low passage presumable subtype B pediatric isolate with a syncytium inducing (SI) phenotype in MT-2 cells isolated by Southern Research Institute personnel. All samples were assayed in triplicate where possible with an accompanying determination of compound toxicity. The final volume per well in the microtiter plates was 200 μL. The final volume in the tissue culture flask varied depending upon experimental design and flask size. Assays were incubated for 6 days in a humidified atmosphere at 37° C., 5% CO2, after which supernatants were collected, for analysis of RT activity and cell viability by MTS dye reduction. Culture were also examined microscopically, any abnormalities noted, and in the case of tissue culture flasks cell counts and viability determined by Trypan Blue Dye exclusion.
Time-of-addition assays were performed with PBMCs in two ways. For both assays, PBMCs were isolated and cultured under the conditions as described above. Time-of-addition assays were carried out in either a tissue culture flask format (T-75 cm^2) or in microtiter wells. In both cases due to the lack of plastic adherence and heterogeneity of the PBMC population for susceptibility to infection, it was not possible to use complete removal of virus following a timed adsorption to synchronize the infection and limit the assay to a single round of infection. Therefore, serial washing by partial removal of the media was used to reduce the concentration of virus and compound (if required) in the assay. Compound addition in relationship to antiviral activity was either assessed over a short addition interval immediately before or after virus addition or for up to 72 h post infection. For all assays virus replication was assessed at 6 days of culture by determining RT expression in cell-free supernatants. In the tissue culture flask format cells were counted and Trypan Blue Dye exclusion used to monitor compound cytotoxicity. Cell viability in the 96 well microtiter plate format was determined by MTS dye reduction. AZT was used as a positive control.
At assay termination the assay plates were stained with the soluble tetrazolium-based dye MTS (CellTiter96® Reagent Promega) to determine cell viability and quantify compound toxicity. MTS is metabolized by the mitochondria enzymes of metabolically active cells to a soluble formazan product, allowing the rapid quantitative analysis cell viability and compound cytotoxicity. […] At termination of the assay 20 μL of MTS reagent was added per well and incubated for 4 h at 37° C. […]

PBMCs [2] = test: PBMC viability by Trypan Blue dye exclusion
Source text: as §1
Experiments were conducted using flow cytometry to assess the effect of the IMG compounds and cannabidiol on induction of apoptosis. Briefly, compound-treated PBMCs were assayed for apoptosis using a BrdU methodology. Table 6 summarizes the effects of the IMG Compounds on cell cycle and cell viability by Trypan Blue Dye exclusion. Table 7 reduces the changes in the cell cycle to a ratio based upon the percent of cells in G2-G1. G2-G1 cells represent transition cells that are in either G2 or G1, that cannot be distinguished based upon DNA content by flow cytometry. […] This ratio cannot be used as a quantitative factor to measure fold-increases or decreases between population, but rather to access trends in the cell cycle.

PBMCs [3] = test: PBMC apoptosis by flow cytometry (APO-BRDU kit)
Description: Flow cytometry studies were carried out on PHA/IL-2 induced PBMCs treated for 6 days with the various test compounds. Prior to flow cytometry the PBMCs were washed, counted and 1×10^6 cells resuspended in PBS and stained for CD4 or CD8 surface markers using anti-CD4.PE or CD8.PE (both from PharMingen) for 30 min at 4° C. The PBMC were then washed, fixed (Cytofix) and permeabilized (Cytoperm) followed by staining for apoptosis-related DNA damage. Initial experiments used the BrdU Flow Kit from PharMigen (2354KK). […] For both kits, manufacturers instructions were followed for staining and analysis of the samples. Following the appropriate staining protocol the cells were analyzed using a Becton Dickinson (Bedford, Mass.) FACSSort
In another series of experiments, the IG compounds and cannabidiol treated cells were assessed for the induction of apoptosis (see Tables 8 and 9). […] As IL-2 is an essential component for maintaining the health of PHA induced PBMCs, a second focus of these studies focuses on the effect of the compounds in the absence of IL-2.

[4] = −4 h pre (relative to infection)
[5] = IL-2 supplemented media, 15 μM, HIV +
[6] = IL-2 supplemented media, 15 μM, HIV −
[7] = IL-2 supplemented media, 30 μM, HIV +
[8] = IL-2 supplemented media, 30 μM, HIV −
[9] = IL-2 supplemented media, 50 μM, HIV +
[10] = IL-2 supplemented media, 50 μM, HIV −
[11] = IL-2 supplemented media, 100 μM, HIV +
[12] = IL-2 supplemented media, 100 μM, HIV −

C=C(C)[C@@H]1CCC(C)=C[C@H]1c1c(O)cc(CCCCC)cc1O [Cannabidiol, reference compound]
TC50 (PBMCs [1]; 6 h post infection): >100 µM
TC50 (PBMCs [1]; at infection): >100 µM
TC50 (PBMCs [1]; [4]): >100 µM
% Viable Cells (PBMCs [2]; 1 μM, HIV +): 94%
% Viable Cells (PBMCs [2]; 1 μM, HIV −): 85%
% Viable Cells (PBMCs [2]; 25 μM, HIV +): 55%
% Viable Cells (PBMCs [2]; 25 μM, HIV −): 86%
% Viable Cells (PBMCs [2]; 35 μM, HIV +): 61%
% Viable Cells (PBMCs [2]; 35 μM, HIV −): 61%
% Apoptosis (PBMCs [3]; [5]): 20.0%
Fold Change (PBMCs [3]; [5]): 1.2
% Apoptosis (PBMCs [3]; [6]): 20.5%
Fold Change (PBMCs [3]; [6]): 1.7
% Apoptosis (PBMCs [3]; [7]): 74%
Fold Change (PBMCs [3]; [7]): 4.6
% Apoptosis (PBMCs [3]; [8]): 22%
Fold Change (PBMCs [3]; [8]): 1.8

COc1cc(C(C)(C)CCCC(C)C)cc(OC)c1OC [IG-07, 1-(1,1,5Trimethylhexyl)-3,4,5-trimethoxybenzene]
TC50 (PBMCs [1]; 6 h post infection): >100 µM
TC50 (PBMCs [1]; at infection): >100 µM
TC50 (PBMCs [1]; [4]): >100 µM
% Viable Cells (PBMCs [2]; 5 μM, HIV +): 94%
% Viable Cells (PBMCs [2]; 5 μM, HIV −): 92%
% Viable Cells (PBMCs [2]; 100 μM, HIV +): 55%
% Viable Cells (PBMCs [2]; 100 μM, HIV −): 50%
% Apoptosis (PBMCs [3]; IL-2 deficient media, 50 μM, HIV +): 32.6%
% Apoptosis (PBMCs [3]; IL-2 deficient media, 50 μM, HIV −): 27%
% Apoptosis (PBMCs [3]; IL-2 deficient media, 100 μM, HIV +): 64%
% Apoptosis (PBMCs [3]; IL-2 deficient media, 100 μM, HIV −): 54%
% Apoptosis (PBMCs [3]; [9]): 16%
Fold Change (PBMCs [3]; [9]): 1
% Apoptosis (PBMCs [3]; [10]): 14.4%
Fold Change (PBMCs [3]; [10]): 1.2
% Apoptosis (PBMCs [3]; [11]): 22.5%
Fold Change (PBMCs [3]; [11]): 1.4
% Apoptosis (PBMCs [3]; [12]): 22.8%
Fold Change (PBMCs [3]; [12]): 2

CC(C)=CCCC1(C)CCc2c(O)cc(C(C)(C)CCCC(C)C)cc2O1 (stereo not shown) [IG-08, 3,4-Dihydro-2-methyl-2-(4-methyl-3-pentenyl)-7-(1,1,5-trimethylhexyl)-2H-1-benzopyran-5-ol]
TC50 (PBMCs [1]; 6 h post infection): >100 µM
TC50 (PBMCs [1]; at infection): >100 µM
TC50 (PBMCs [1]; [4]): >100 µM
% Viable Cells (PBMCs [2]; 15 μM, HIV +): 94%
% Viable Cells (PBMCs [2]; 15 μM, HIV −): 89%
% Viable Cells (PBMCs [2]; 30 μM, HIV +): 67%
% Viable Cells (PBMCs [2]; 30 μM, HIV −): 62%
% Apoptosis (PBMCs [3]; IL-2 deficient media, 15 μM, HIV +): 29%
% Apoptosis (PBMCs [3]; IL-2 deficient media, 15 μM, HIV −): 18.4%
% Apoptosis (PBMCs [3]; IL-2 deficient media, 30 μM, HIV +): 13.8%
% Apoptosis (PBMCs [3]; IL-2 deficient media, 30 μM, HIV −): 11.7%
% Apoptosis (PBMCs [3]; [5]): 19.3%
Fold Change (PBMCs [3]; [5]): 1.2
% Apoptosis (PBMCs [3]; [6]): 17.3%
Fold Change (PBMCs [3]; [6]): 1.2
% Apoptosis (PBMCs [3]; [7]): 32.1%
Fold Change (PBMCs [3]; [7]): 2
% Apoptosis (PBMCs [3]; [8]): 27.5%
Fold Change (PBMCs [3]; [8]): 2.3
